Like-named read-outs stand apart in the source and are kept apart here.
Key:
Format in all cases: binding
[1] = target: T1, CIB1 and αIIb interaction (CIB1-GST : F-αIIb peptide) (Homo sapiens, UniProt Q99828); test: FP assay, 1536-well qHTS format (primary and confirmatory screen)
T1 construct: made in house; host or cells: BL-21 plus RIL cells (E. coli)
T1 sequence (Q99828 1-191): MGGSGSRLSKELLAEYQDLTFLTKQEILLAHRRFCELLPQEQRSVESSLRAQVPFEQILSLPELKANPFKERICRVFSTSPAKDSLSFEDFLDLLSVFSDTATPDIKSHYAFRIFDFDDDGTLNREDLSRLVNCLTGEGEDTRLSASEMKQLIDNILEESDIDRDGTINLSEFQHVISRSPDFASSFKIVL

[2] = target: T2, GST-CIB1 : F-scrambled peptide (Homo sapiens, UniProt Q99828); test: FP scrambled-peptide counter screen, 384-well format; conditions: for 384-well COUNTERSCREEN Confirm?: *: Curve in opposite direction; for IC50: read-out: 384-well COUNTERSCREEN IC50
T2 construct: made in house; host or cells: BL-21 plus RIL cells (E. coli)
T2 sequence (Q99828 1-191): T1 sequence (Q99828 1-191)

[3] = target: T2, GST-CIB1 : F-scrambled peptide; test: FP scrambled-peptide counter screen, 1536-well format; conditions: for IC50: read-out: COUNTERSCREEN IC50
[4] = target: T3, CIB1 and αIIb interaction (GST-CIB1 : F-αIIb peptide) (Homo sapiens, UniProt Q99828); test: FP assay, 384-well format (screen); parameters: 384-well SCREEN Efficacy (%): concentration or dose not given beside the values; conditions: for IC50: read-out: 384-well SCREEN IC50
T3 construct: made in house; host or cells: BL-21 plus RIL cells (E. coli)
T3 sequence (Q99828 1-191): T1 sequence (Q99828 1-191)

[5] = confirmatory screen, YES/NO call
[6] = confirmatory screen, qHTS curve class, negative sign = inhibitory curve
[7] = confirmatory screen, negative = inhibition
[8] = confirmatory screen, read-out: CONFIRMATORY SCREEN IC50
[9] = qHTS FP screen hits, Table S2, negative = inhibition
[10] = qHTS FP screen hits, Table S2, one class per curve where COUNT > 1, negative sign = inhibitory curve
[11] = qHTS FP screen hits, Table S2, read-out: IC50
[12] = scrambled-peptide counterscreen
[13] = scrambled-peptide counterscreen, YES/NO call
[14] = scrambled-peptide counterscreen, qHTS curve class
[15] = qHTS primary screen hits, Table S2, negative = inhibition
[16] = qHTS primary screen hits, Table S2, negative sign = inhibitory curve, several classes where COUNT > 1
[17] = qHTS primary screen hits, Table S2, read-out: IC50

| SMILES | CONFIRMATORY SCREEN Confirm? [1, 5] | CONFIRMATORY SCREEN Curve Class [1, 6] | CONFIRMATORY SCREEN Efficacy (%) [1, 7] | IC50 [1, 8] | Efficacy (%) [1, 9] | Curve Class [1, 10] | IC50 [1, 11] | 384-well COUNTERSCREEN Efficacy (%) ([2]; F-scrambled peptide) | 384-well COUNTERSCREEN Confirm? ([2]; F-scrambled peptide) | IC50 ([2]; F-scrambled peptide) | COUNTERSCREEN Efficacy (%) [3, 12] | COUNTERSCREEN Confirm? [3, 13] | COUNTERSCREEN Curve Class [3, 14] | IC50 [3, 12] | 384-well SCREEN Efficacy (%) ([4]; F-αIIb peptide) | 384-well SCREEN Confirm? ([4]; F-αIIb peptide, YES/NO) | IC50 ([4]; F-αIIb peptide) | Efficacy (%) [1, 15] | Curve Class [1, 16] | IC50 [1, 17] | also measured |
| --- | --- | --- | --- | --- | --- | --- | --- | --- | --- | --- | --- | --- | --- | --- | --- | --- | --- | --- | --- | --- | --- |
| Brc1c(Br)c(Br)c2[nH]nnc2c1Br [NCGC00092352-04, 4,5,6,7-tetrabromobenzotriazole, reference compound] | YES | -1.2 | -43% | 2.8 µM | -49% | -1.2 | 14.1 µM | 35% | YES | > 120 µM | 79% | YES | 3 | 79.4 µM | 40% | YES | 4.7 µM |  |  |  | IC50 ([1]; 1536-well qHTS of 14,782 compounds, read-out: intraplate control IC50): ~10.7 µM; IC50 ([1]; 1536-well, LOPAC1280 pilot screen, 0.85 μM GST-CIB1, 100 nM F-αIIb, RT 15 minutes): double-digit micromolar inhibitor |
| CN1CCCN=C1/C=C/c1cccs1.O=C(O)c1cc2ccccc2c(Cc2c(O)c(C(=O)O)cc3ccccc23)c1O [NCGC00094552-04] | YES | -2.4 | -39% |  |  |  |  | 40% |  |  | 0% | YES | 4 |  | 24% |  |  | -25% | -2.4 |  |  |
| CCCCCc1c2c(cc(O)c1C(=O)O)OC(=O)c1c(cc(OC)cc1C(=O)CCCC)O2.O=C(O)C(F)(F)F [NCGC00095570-05] | YES | -1.2 | -60% | 11.2 µM |  |  |  | 58% | YES | 50.1 µM | -14% | YES | 4 |  | 38% | YES | 8.9 µM | -33% | -1.4 | 12.6 µM |  |
| O=C(O)C(F)(F)F.O=S(=O)(Nc1nc2n(n1)C(c1ccccc1)C=C(c1ccc(Cl)cc1)N2)c1ccccc1 (stereo not drawn) [NCGC00100537-04] | YES | -2.2 | -81% | 39.8 µM | -125% | -1.1 | 22.4 µM | 80% |  | 50.1 µM | 10% | YES | 4 |  | 85% | YES | 50.1 µM |  |  |  |  |
| CC[P](CC)(CC)=[Au][S][C@@H]1O[C@H](COC(C)=O)[C@@H](OC(C)=O)[C@H](OC(C)=O)[C@H]1OC(C)=O [NCGC00160391-02] |  |  |  |  |  |  |  |  |  |  |  |  |  |  |  |  |  |  |  |  | CONFIRMATORY SCREEN Confirm? [1]: YES; CONFIRMATORY SCREEN Curve Class [1]: -1.2; CONFIRMATORY SCREEN Efficacy (%) [1]: -36%; IC50 ([1]; read-out: CONFIRMATORY SCREEN IC50): 31.6 µM; 384-well COUNTERSCREEN Efficacy (%) [2]: 52%; IC50 [2]: 8.9 µM; COUNTERSCREEN Confirm? [3]: YES; COUNTERSCREEN Curve Class [3]: 4; COUNTERSCREEN Efficacy (%) [3]: -14%; 384-well SCREEN Confirm? [4]: YES; 384-well SCREEN Efficacy (%) [4]: 69%; IC50 [4]: 6.3 µM |
| CCc1oc2ccccc2c1C(=O)c1cc(I)c(O)c(I)c1 [NCGC00160408-03] | YES | -1.2 | -75% | 11.2 µM | -52% | -2.2 | 39.8 µM | 173% |  | 10 µM | 20% | YES | 1.4 | 11.2 µM | 31% |  | > 120 µM |  |  |  |  |
| CCCCCCCCOc1ccccc1C(=O)Nc1ccc(C(=O)OCC[N+](C)(CC)CC)cc1.[Br-] [NCGC00163507-02] | YES | -3 | -60% | 39.8 µM |  |  |  | 39% | YES | > 120 µM | 0% | YES | 4 |  | 69% | YES | 12.6 µM |  |  |  |  |
| COc1nn(CSP(=S)(OC)OC)c(=O)s1 [NCGC00163724-03] | YES | -1.4 | -47% | 20 µM |  |  |  | 60% | YES | > 120 µM | 0% | YES | 4 |  | 80% | YES | 15.8 µM | -47% | -1.2 | 58.6 µM |  |
| Br.CCCCCCCCCCCCCCCC[N+](C)(C)C.[Br-] [NCGC00164283-07] | YES | -2.1 | -114% | 70.8 µM | -75% | -2.2 | 79.4 µM | 44% | YES | 2.5 µM | 0% | YES | 4 |  | 57% | YES | 15.8 µM |  |  |  |  |
| COc1cc(C(=O)NS(=O)(=O)c2ccccc2C)ccc1Cc1cn(C)c2ccc(NC(=O)OC3CCCC3)cc12 [NCGC00164547-06] | YES | -1.2 | -58% | 14.1 µM |  |  |  | 60% | YES* | 1 µM | 37% | YES |  | 50.1 µM | 38% | YES | 9.6 µM | -38% | -2.4 | 35.5 µM |  |
| CCOC(=O)N1CCN([N+]([O-])=NOc2ccc([N+](=O)[O-])cc2[N+](=O)[O-])CC1 [NCGC00165815-03] | YES | -1.2 | -62% | 6.3 µM |  |  |  | 48% | YES | 15.8 µM | -56% | YES | -2.2 | 44.7 µM | 61% | YES | 1.8 µM |  |  |  |  |
| Cn1sc(=O)n(Cc2ccccc2)c1=O [NCGC00165913-03] | YES | -1.2 | -81% | 7.9 µM | -79% | -1.2 | 8.9 µM | -20% | YES | > 120 µM | -22% | YES | 4 |  | 90% | YES | 1.7 µM |  |  |  |  |
| COc1cc(/C=C2/N=C(c3ccccc3)OC2=O)c(F)cc1OCc1ccccc1 [NCGC00168015-01] | YES | -2.2 | -79% | 44.7 µM |  |  |  | 32% |  | > 120 µM | -24% | YES | 4 |  | 22% |  | > 120 µM | -91% | -2.1 | 50.1 µM |  |

— article PMC11249646, “Small-Molecule Disruptors of the Interaction between Calcium- and Integrin-Binding Protein 1 and Integrin αIIbβ3 as Novel Antiplatelet Agents” (ACS Pharmacology & Translational Science, 2024)
